Tests used:
Assay type in all cases: in vivo
Trichostrongylus axei = test: Effect test for Trichostrongylus axei; parameters: concentration or dose not given beside the values; details: test chemical solution B added to eggs in 96-well plate, unhatched eggs and inactive larvae counted 4 days after addition, 25°C, relative to untreated plot
Protocol: Agar medium with 1% potato dextrose was aliquoted into 60-µl portions in a 96-well plate, and 30 µl of sterilized water containing Trichostrongylus axei eggs and a freeze-dried Escherichia coli OP50 strain (five eggs, 10 µg/10 µl Escherichia coli) was added to each well. From above, 10 µl of test chemical solution B of the presently invented compound was added to each well, and the plate was left to stand under dark conditions at 25°C.

[1] = system: cat fleas (Ctenocephalides felis); test: whole plant or invertebrate; details: 72 h, read-out: death rate
Protocol: In 1 ml of acetone, 1 mg of the presently invented compound was dissolved to prepare a chemical solution having a concentration of 1000 ppm. The bottom surface and side surface of each glass container having an inner wall surface area of 25 cm^2 were coated with 250 µl of the chemical solution, and acetone was then volatilized to form a thin film of the compound on the inner wall of the glass container.
Into each of the treated glass containers, five cat fleas (Ctenocephalides felis) imagoes (mixed-sex) were released, and the glass containers were capped and accommodated in a thermostatic room at 25°C. Three days after the release, the number of dead flea individuals were examined, and the death rate was calculated from the same calculation formula as in Test Example 1.

[2] = system: diamondback moths (Plutella xylostella); test: Insecticidal test for diamondback moths; details: Plutella xylostella, 144 h; 500 ppm chemical solution, leaves soaked, third-instar larvae, six days, 25°C; read-out: death rate
Protocol: A 10% by mass emulsion of the presently invented compound prepared according to the above formulation example for an emulsion was diluted with water containing a spreader to prepare a chemical solution having a concentration of 500 ppm. Chinese olive leaves were soaked in the chemical solution for approximately 10 seconds. After the completion of the soaking operation, the Chinese olive leaves treated with the chemical solution were air-dried, and then put in dishes. Into each dish, five third-instar diamondback moths (Plutella xylostella) larvae were released, and the dishes were capped and accommodated in a thermostatic room at 25°C. […] The test was carried out in duplicate.

[3] = system: western flower thrips (Frankliniella occidentalis); test: Insecticidal activity against western flower thrips; details: Frankliniella occidentalis, 48 h; 500 ppm chemical solution sprinkled (2.5 mg/cm^2), larvae on common bean leaf, after 2 days; read-out: death rate
Protocol: Wet filter paper was laid on each styrol cup having an inner diameter of 7 cm, and a common bean leaf cut into a 3 cm square was placed thereon, and inoculated with 20 western flower thrips (Frankliniella occidentalis) larvae. A 10% by mass emulsion of the presently invented compound prepared according to the above formulation example for an emulsion was diluted with water containing a spreader to prepare a chemical solution having a concentration of 500 ppm. For each styrol cup, 2.5 ml of the chemical solution prepared was sprinkled (2.5 mg/cm^2) with a rotary tower sprinkler. […] The test was carried out in duplicate.

[4] = system: brown rice planthoppers (Nilaparvata lugens); test: Insecticidal test for brown rice planthoppers; details: Nilaparvata lugens, 144 h; 500 ppm chemical solution, rice leaf sheaths soaked, third-instar larvae, six days, 25°C; read-out: death rate
Protocol: A 10% by mass emulsion of the presently invented compound prepared according to the above formulation example for an emulsion was diluted with water containing a spreader to prepare a chemical solution having a concentration of 500 ppm. Rice leaf sheaths were soaked in the chemical solution for approximately 10 seconds. After the completion of the soaking operation, the rice leaf sheaths treated with the chemical solution were air-dried, and then put in test tubes. Into each test tube, five third-instar brown rice planthoppers (Nilaparvata lugens) larvae were released, and the test tubes were capped with sponge and accommodated in a thermostatic room at 25°C. Six days after the accommodation, the number of dead brown rice planthoppers individuals in the test tubes were examined, and the death rate was calculated from a calculation formula shown below. The test was carried out in duplicate. [formula]

SMILES | efficacy (%) (Trichostrongylus axei) | mortality at 10 µg/cm2 [1] | mortality at 500 µg/mL [2] | mortality at 500 µg/mL [3] | mortality at 500 µg/mL [4]
Cc1cc(-c2noc(C3CC(O)=C(C(=O)Nc4ccc(F)cn4)C(=O)N3)n2)ccn1 (stereo not shown) [3-061] | ≥ 50% | – | – | – | –
O=C(Nc1ccc(F)cn1)C1=C(O)CC(c2cnc(C(F)(F)F)c(-c3ccc(F)cc3)c2)NC1=O (stereo not shown) [2-244] | ≥ 50% | – | – | – | –
O=C(Nc1ccc(Cl)cn1)C1=C(O)CC(c2nc(-c3ccc(F)nc3)no2)NC1=O (stereo not shown) [3-102] | ≥ 50% | – | – | – | –
O=C(Nc1ncc(F)cc1Cl)C1=C(O)CC(c2cnc(Cl)c(-c3ccc(F)nc3)c2)NC1=O (stereo not shown) [2-103] | ≥ 50% | – | – | – | –
O=C(Nc1ccc(F)cn1)C1=C(O)CC(c2cnc(C(F)(F)F)c(-c3ccc(F)nc3)c2)NC1=O (stereo not shown) [2-167] | ≥ 50% | – | – | – | –
O=C(Nc1cnccn1)C1=C(O)CC(c2cnc(Cl)c(-c3ccc(F)nc3)c2)NC1=O (stereo not shown) [2-133] | ≥ 50% | – | – | – | –
COc1cccc(-c2cc(C3CC(O)=C(C(=O)Nc4ccc(F)cn4)C(=O)N3)cnc2C(F)(F)F)c1 (stereo not shown) [2-247] | ≥ 50% | – | – | – | –
O=C(Nc1ccc(F)cn1)C1=C(O)CC(c2nc(-c3cncc(F)c3)no2)NC1=O (stereo not shown) [3-083] | ≥ 50% | – | – | – | –
O=C(Nc1nc[nH]n1)C1=C(O)CC(c2cnc(Cl)c(-c3ccc(F)cc3)c2)NC1=O (stereo not shown) [2-291] | ≥ 50% | – | – | – | –
Cc1ccnc(NC(=O)C2=C(O)CC(c3cnc(Cl)c(-c4ccc(F)nc4)c3)NC2=O)c1 (stereo not shown) [2-153] | ≥ 50% | – | – | – | –
Cn1ccc(NC(=O)C2=C(O)CC(c3nc(-c4ccc(F)cc4F)no3)NC2=O)n1 (stereo not shown) [3-154] | ≥ 50% | – | – | – | –
O=C(Nc1ccc(F)cn1)C1=C(O)CC(c2cnc(Cl)c(-c3ccnc(F)c3)c2)NC1=O (stereo not shown) [2-115] | ≥ 50% | – | – | – | –
O=C(Nc1cnc(Cl)c(Cl)c1)C1=C(O)CC(c2cnc(Cl)c(-c3ccc(F)nc3)c2)NC1=O (stereo not shown) [2-126] | ≥ 50% | – | – | – | –
Cc1ccc(-c2noc(C3CC(O)=C(C(=O)Nc4ccc(F)cn4)C(=O)N3)n2)cn1 (stereo not shown) [3-087] | ≥ 50% | – | – | – | –
O=C(Nc1ccc(F)cn1)C1=C(O)CC(c2nc(-c3cc(F)c(F)cc3F)no2)NC1=O (stereo not shown) [3-139] | ≥ 50% | – | – | – | –
Cc1cccc(-c2cc(C3CC(O)=C(C(=O)Nc4ccn(C)n4)C(=O)N3)cnc2Cl)c1 (stereo not shown) [2-256] | ≥ 50% | – | – | – | –
O=C(Nc1cc(F)ccn1)C1=C(O)CC(c2nc(-c3ccc(F)cc3F)no2)NC1=O (stereo not shown) [3-199] | ≥ 50% | – | – | – | –
O=C(Nc1ncc(Cl)cc1F)C1=C(O)CC(c2cnc(C(F)(F)F)c(-c3ccc(F)nc3)c2)NC1=O (stereo not shown) [2-181] | ≥ 50% | – | – | – | –
Cc1cnc(NC(=O)C2=C(O)CC(c3cnc(Cl)c(-c4ccc(F)nc4)c3)NC2=O)nc1 (stereo not shown) [2-120] | ≥ 50% | – | – | – | –
Cc1ccc(NC(=O)C2=C(O)CC(c3nc(-c4ccc(F)cc4)no3)NC2=O)nc1 (stereo not shown) [3-127] | ≥ 50% | – | – | – | –
Cn1ccc(NC(=O)C2=C(O)CC(c3nc(-c4ccc(F)cc4)no3)NC2=O)n1 (stereo not shown) [3-202] | ≥ 50% | – | – | – | –
CON=Cc1cccc(-c2noc(C3CC(O)=C(C(=O)Nc4ccc(F)cn4)C(=O)N3)n2)c1 (stereo not shown) [3-124] | ≥ 50% | – | – | – | –

SMILES | efficacy (%) (Trichostrongylus axei) | mortality at 10 µg/cm2 [1] | mortality at 500 µg/mL [2] | mortality at 500 µg/mL [3] | mortality at 500 µg/mL [4]
O=C(Nc1ccc(F)cn1)C1=C(O)CC(c2nc(-c3csc(Br)c3)no2)NC1=O (stereo not shown) [3-086] | ≥ 50% | – | – | – | –
O=C(Nc1cccnc1)C1=C(O)CC(c2nc(-c3ccc(F)cc3F)no2)NC1=O (stereo not shown) [3-177] | – | ≥ 50% | ≥ 90% | ≥ 90% | ≥ 90%
N#Cc1ccc(NC(=O)C2=C(O)CC(c3cnc(Cl)c(-c4ccccc4)c3)NC2=O)nc1 (stereo not shown) [2-094] | – | ≥ 50% | ≥ 90% | ≥ 90% | ≥ 90%
O=C(Nc1cc(F)ccn1)C1=C(O)CC(c2nc(-c3ccsc3Cl)no2)NC1=O (stereo not shown) [3-235] | – | ≥ 50% | ≥ 90% | ≥ 90% | ≥ 90%
Cc1ccnc(NC(=O)C2=C(O)CC(c3nc(-c4ccncc4C)no3)NC2=O)c1 (stereo not shown) [3-176] | – | ≥ 50% | ≥ 90% | ≥ 90% | ≥ 90%
Cc1cccc(-c2cc(C3CC(O)=C(C(=O)Nc4ccc(F)cc4)C(=O)N3)cnc2Cl)c1 (stereo not shown) [2-263] | – | ≥ 50% | ≥ 90% | ≥ 90% | ≥ 90%
O=C(Nc1cc(F)ccn1)C1=C(O)CC(c2nc(-c3cccc(F)c3)no2)NC1=O (stereo not shown) [3-057] | – | ≥ 50% | ≥ 90% | ≥ 90% | ≥ 90%
O=C(Nc1cnccn1)C1=C(O)CC(c2cnc(Cl)c(-c3ccc(F)cc3)c2)NC1=O (stereo not shown) [2-227] | – | ≥ 50% | ≥ 90% | ≥ 90% | ≥ 90%
N#Cc1ccc(NC(=O)C2=C(O)CC(c3cnc(Cl)c(-c4ccccc4)c3)NC2=O)cn1 (stereo not shown) [2-093] | – | ≥ 50% | ≥ 90% | ≥ 90% | ≥ 90%
O=C(Nc1ccccn1)C1=C(O)CC(c2nc(-c3ccc(F)cc3)no2)NC1=O (stereo not shown) [3-184] | – | ≥ 50% | ≥ 90% | ≥ 90% | ≥ 90%
O=C(Nc1cc(F)ccn1)C1=C(O)CC(c2nc(-c3ccc(F)c(Br)c3)no2)NC1=O (stereo not shown) [3-146] | – | ≥ 50% | ≥ 90% | ≥ 90% | ≥ 90%
O=C(Nc1ccc(F)cc1)C1=C(O)CC(c2nc(-c3cc(F)ccc3F)no2)NC1=O (stereo not shown) [3-026] | – | ≥ 50% | ≥ 90% | ≥ 90% | ≥ 90%
O=C(Nc1cnc(Cl)cn1)C1=C(O)CC(c2cnc(Cl)c(-c3ccc(F)nc3)c2)NC1=O (stereo not shown) [2-011] | – | ≥ 50% | ≥ 90% | ≥ 90% | ≥ 90%
O=C(Nc1ccc(F)cc1)C1=C(O)CC(c2ccc(C(F)(F)F)c(-c3cncc(F)c3)c2)NC1=O (stereo not shown) [1-002] | – | ≥ 50% | ≥ 90% | ≥ 90% | ≥ 90%
O=C(Nc1ccc(F)cn1)C1=C(O)CC(c2cnc(Cl)c(-c3ccc(F)nc3)c2)NC1=O (stereo not shown) [2-009] | – | ≥ 50% | ≥ 90% | ≥ 90% | ≥ 90%
O=C(Nc1ccc(F)cn1)C1=C(O)CC(c2nc(-c3cnc(C(F)(F)F)s3)no2)NC1=O (stereo not shown) [3-264] | – | ≥ 50% | ≥ 90% | ≥ 90% | ≥ 90%
O=C(Nc1ccc(F)cc1)C1=C(O)CC(c2cnc(Cl)c(-c3ccccc3)c2)NC1=O (stereo not shown) [2-089] | – | ≥ 50% | ≥ 90% | ≥ 90% | ≥ 90%
O=C(Nc1ccc(F)nc1)C1=C(O)CC(c2cnc(Cl)c(-c3ccc(F)nc3)c2)NC1=O (stereo not shown) [2-008] | – | ≥ 50% | ≥ 90% | ≥ 90% | ≥ 90%
O=C(Nc1ccccn1)C1=C(O)CC(c2cnc(Cl)c(-c3ccc(F)nc3)c2)NC1=O (stereo not shown) [2-096] | – | ≥ 50% | ≥ 90% | ≥ 90% | ≥ 90%
O=C(Nc1ccc(F)cn1)C1=C(O)CC(c2nc(-c3ccnc(F)c3)no2)NC1=O (stereo not shown) [3-036, N-(5-fluoropyridin-2-yl)-6-(3-(2-fluoropyridin-4-yl)-1,2,4-oxadiazol-5-yl)-4-hydroxy-2-oxo-1,2,5,6-tetrahydropyridine-3-carboxamide] | – | ≥ 50% | ≥ 90% | ≥ 90% | ≥ 90%
O=C(Nc1cc(F)ccn1)C1=C(O)CC(c2nc(-c3cscc3Cl)no2)NC1=O (stereo not shown) [3-234] | – | ≥ 50% | ≥ 90% | ≥ 90% | ≥ 90%
